ChEMBL document CHEMBL1201862, “PubChem BioAssay data set” (2004)
The source made the active and inactive calls.

Experiments:
[1] = target: T1, DNA repair protein RAD52 homolog (Homo sapiens, UniProt P43351); format: functional, biochemical
T1 sequence (P43351 whole entry): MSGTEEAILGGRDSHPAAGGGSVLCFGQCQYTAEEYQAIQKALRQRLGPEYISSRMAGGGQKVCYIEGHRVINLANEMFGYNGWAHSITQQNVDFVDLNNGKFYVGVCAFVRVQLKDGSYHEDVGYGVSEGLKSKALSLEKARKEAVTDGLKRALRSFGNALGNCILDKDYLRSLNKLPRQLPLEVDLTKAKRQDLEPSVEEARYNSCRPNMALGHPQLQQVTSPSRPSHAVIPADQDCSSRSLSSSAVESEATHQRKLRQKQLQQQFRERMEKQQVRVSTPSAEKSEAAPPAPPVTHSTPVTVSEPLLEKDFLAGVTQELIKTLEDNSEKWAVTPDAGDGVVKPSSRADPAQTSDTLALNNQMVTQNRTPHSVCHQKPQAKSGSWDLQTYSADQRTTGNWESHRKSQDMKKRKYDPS

[2] = target: T2, Corticotropin-releasing factor receptor 2/Corticotropin-releasing factor-binding protein (Homo sapiens, UniProt P24387+Q13324); assay: activators of CRF receptor 2 with binding protein – uHTS hits, confirmation (AID 602473); format: functional; conditions: read-out: EC50_Mean
T2 sequence (Q13324 whole entry): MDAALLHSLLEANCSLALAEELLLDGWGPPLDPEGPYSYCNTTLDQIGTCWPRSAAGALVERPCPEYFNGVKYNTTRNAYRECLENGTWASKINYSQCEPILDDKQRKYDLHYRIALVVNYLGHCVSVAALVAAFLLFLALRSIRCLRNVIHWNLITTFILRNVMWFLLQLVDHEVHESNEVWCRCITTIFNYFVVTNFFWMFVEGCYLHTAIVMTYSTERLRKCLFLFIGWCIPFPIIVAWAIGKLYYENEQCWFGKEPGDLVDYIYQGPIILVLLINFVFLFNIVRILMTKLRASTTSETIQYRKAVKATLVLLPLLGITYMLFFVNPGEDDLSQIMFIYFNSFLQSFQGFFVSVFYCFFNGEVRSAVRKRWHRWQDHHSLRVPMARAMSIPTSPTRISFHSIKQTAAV
T2 sequence (P24387 whole entry): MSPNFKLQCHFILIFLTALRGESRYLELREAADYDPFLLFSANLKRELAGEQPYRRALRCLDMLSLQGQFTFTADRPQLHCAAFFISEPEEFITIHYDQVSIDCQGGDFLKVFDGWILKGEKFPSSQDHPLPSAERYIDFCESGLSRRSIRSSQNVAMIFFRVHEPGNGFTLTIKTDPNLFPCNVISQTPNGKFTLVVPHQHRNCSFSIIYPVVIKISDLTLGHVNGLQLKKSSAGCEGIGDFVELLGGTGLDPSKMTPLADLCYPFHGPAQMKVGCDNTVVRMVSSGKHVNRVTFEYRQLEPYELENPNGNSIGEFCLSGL

Fatty acid synthase [3] = target: T3, Fatty acid synthase (Homo sapiens, UniProt P49327); assay: FAS thioesterase domain inhibitors, dose response, biochemical, kinetic fluorescence intensity (AID 624326); format: functional;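 note: rate of fluorescence rise from hydrolysis of a fluorogenic O-methyl fluorescein ester substrate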
T3 sequence (P49327 whole entry, the tested form may be a part): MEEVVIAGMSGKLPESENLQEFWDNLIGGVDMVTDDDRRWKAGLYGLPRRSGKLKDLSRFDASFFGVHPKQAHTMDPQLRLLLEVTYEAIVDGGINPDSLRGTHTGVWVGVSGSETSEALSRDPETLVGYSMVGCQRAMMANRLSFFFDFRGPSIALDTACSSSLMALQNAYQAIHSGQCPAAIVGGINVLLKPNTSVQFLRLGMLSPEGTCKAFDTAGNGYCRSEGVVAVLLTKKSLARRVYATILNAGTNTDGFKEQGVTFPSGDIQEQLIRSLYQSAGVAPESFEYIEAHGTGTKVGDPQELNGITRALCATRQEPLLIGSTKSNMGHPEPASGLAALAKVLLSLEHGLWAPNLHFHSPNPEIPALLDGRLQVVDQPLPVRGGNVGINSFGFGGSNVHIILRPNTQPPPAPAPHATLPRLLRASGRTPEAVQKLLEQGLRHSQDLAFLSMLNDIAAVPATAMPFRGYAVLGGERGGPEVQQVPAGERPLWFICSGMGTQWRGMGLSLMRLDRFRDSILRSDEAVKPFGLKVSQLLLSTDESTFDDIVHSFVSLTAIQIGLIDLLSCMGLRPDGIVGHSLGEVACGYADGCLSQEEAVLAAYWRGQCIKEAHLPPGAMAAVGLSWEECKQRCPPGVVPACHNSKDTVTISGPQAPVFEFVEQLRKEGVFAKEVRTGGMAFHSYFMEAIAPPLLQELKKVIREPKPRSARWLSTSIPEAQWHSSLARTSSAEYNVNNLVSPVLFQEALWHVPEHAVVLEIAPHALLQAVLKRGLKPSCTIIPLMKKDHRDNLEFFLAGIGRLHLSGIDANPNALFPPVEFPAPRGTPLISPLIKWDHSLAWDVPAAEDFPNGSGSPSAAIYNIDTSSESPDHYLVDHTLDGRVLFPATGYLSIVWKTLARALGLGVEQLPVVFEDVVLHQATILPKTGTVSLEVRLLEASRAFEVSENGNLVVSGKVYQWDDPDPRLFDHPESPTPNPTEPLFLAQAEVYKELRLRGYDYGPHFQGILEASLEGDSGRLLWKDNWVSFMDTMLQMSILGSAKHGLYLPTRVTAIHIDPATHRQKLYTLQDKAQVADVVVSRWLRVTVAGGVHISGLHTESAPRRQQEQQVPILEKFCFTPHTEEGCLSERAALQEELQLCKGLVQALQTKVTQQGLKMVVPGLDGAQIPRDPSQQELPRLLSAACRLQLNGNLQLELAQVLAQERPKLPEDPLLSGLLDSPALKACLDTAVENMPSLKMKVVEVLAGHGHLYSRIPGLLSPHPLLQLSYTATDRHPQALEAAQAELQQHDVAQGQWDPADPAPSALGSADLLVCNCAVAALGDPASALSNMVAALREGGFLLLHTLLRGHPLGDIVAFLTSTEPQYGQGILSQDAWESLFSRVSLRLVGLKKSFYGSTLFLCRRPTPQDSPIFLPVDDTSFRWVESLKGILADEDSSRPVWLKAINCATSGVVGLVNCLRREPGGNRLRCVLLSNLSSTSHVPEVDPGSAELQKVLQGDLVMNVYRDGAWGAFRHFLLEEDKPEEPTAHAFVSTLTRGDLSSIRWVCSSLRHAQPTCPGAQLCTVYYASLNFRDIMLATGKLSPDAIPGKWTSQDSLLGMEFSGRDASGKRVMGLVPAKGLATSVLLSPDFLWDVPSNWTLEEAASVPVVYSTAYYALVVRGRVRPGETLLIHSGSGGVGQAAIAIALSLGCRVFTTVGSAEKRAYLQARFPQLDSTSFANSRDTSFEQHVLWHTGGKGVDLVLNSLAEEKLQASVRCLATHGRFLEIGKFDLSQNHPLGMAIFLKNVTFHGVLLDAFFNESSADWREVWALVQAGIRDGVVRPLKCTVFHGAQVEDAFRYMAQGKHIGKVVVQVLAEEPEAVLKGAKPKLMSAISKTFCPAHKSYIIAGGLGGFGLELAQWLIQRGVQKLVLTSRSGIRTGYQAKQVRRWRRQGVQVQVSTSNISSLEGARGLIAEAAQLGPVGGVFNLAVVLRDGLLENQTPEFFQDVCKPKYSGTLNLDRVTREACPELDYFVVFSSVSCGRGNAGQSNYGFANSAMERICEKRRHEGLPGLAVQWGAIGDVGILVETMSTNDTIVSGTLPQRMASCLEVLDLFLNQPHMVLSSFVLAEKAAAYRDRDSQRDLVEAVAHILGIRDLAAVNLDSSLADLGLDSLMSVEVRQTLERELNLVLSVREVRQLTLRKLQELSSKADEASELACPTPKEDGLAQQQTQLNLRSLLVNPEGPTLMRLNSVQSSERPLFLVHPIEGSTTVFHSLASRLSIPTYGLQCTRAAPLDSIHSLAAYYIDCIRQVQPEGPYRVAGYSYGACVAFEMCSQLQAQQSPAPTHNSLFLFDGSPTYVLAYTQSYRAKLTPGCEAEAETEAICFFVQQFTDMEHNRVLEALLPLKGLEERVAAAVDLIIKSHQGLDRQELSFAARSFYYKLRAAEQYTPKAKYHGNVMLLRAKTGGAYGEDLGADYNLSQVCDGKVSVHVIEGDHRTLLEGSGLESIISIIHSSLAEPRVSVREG

Fatty acid synthase [4] = target: T3, Fatty acid synthase; assay: FAS thioesterase domain inhibitors, dose response, biochemical, endpoint fluorescence intensity, uHTS hits (AID 624327); format: functional;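 note: fluorescence from hydrolysis of an O-methyl fluorescein acyl ester substrate by the enzyme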
Estrogen receptor beta = Estrogen receptor beta (Homo sapiens, UniProt Q92731);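 note: recombinant ER-beta bound to coactivator SRC1 peptide in presence of estradiol agonist; inhibitors block coactivator peptide binding and lower the FRET signal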
Chain of Estrogen receptor beta (Q92731 whole entry): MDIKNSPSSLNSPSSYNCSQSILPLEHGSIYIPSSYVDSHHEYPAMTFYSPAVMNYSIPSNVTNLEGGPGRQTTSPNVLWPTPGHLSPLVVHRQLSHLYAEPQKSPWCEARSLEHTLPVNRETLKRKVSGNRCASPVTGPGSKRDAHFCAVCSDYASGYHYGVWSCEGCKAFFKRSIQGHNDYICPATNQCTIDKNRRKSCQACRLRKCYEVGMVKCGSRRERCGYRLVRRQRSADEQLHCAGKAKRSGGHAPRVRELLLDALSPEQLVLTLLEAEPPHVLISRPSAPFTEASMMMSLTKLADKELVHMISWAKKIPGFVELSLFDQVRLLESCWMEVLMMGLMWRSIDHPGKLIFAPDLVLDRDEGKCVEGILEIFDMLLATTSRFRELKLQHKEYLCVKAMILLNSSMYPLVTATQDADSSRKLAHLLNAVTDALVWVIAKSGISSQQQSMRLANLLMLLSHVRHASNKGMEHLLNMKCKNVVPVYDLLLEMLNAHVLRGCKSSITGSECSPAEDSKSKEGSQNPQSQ

Prothrombin = Prothrombin (Homo sapiens, UniProt P00734); assay: Thrombin 1536 HTS Dose Response Confirmation. [Related pubchem assays: 1046 (Thrombin 1536 HTS; hits were confirmed in this assay)]; format: functional
[5] = system: Streptococcus sp. 'group A'; assay: growth inhibition of control SK(-) GAS strain, dose response, counter-screen for streptokinase expression inhibitor project, luminescence, kanamycin, BacTiterGlo, confirmation (AID 1900); format: functional, organism-based
Streptokinase A = target: T4, Streptokinase A (Streptococcus pyogenes serotype M1, UniProt P10520); assay: S. pyogenes streptokinase expression inhibitors, potency, dose response, plasminogen activation absorbance, OD405 (AID 1914); format: functional, Streptococcus pyogenes M1 GAS;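 note: secreted streptokinase activity via plasminogen activation per viability signal from cell pellet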
T4 sequence (P10520 whole entry): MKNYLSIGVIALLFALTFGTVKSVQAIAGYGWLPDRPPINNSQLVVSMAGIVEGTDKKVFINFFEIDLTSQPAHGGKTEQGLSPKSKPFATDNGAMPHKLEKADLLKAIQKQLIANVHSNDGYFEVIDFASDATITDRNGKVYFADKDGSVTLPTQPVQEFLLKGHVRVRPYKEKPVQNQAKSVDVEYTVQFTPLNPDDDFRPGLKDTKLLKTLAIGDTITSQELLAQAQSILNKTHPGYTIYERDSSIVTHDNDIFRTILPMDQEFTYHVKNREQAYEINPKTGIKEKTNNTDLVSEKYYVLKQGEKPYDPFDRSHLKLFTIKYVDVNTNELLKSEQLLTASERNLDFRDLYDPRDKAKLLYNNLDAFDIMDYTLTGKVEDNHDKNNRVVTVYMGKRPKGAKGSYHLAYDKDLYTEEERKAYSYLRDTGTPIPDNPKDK

[6] = HEp-2 cell cytotoxicity, dose response, cytotoxicity control for RSV inhibitor project, HTS (AID 2410); format: functional; conditions: human respiratory syncytial virus
Streptococcus = assay: Group A Streptococcus viability loss, dose response, counter-screen for streptokinase expression inhibitor project, luminescence, BacTiterGlo (AID 1915); format: functional, organism-based;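 note: potency for reduction of bacterial viability or growth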
[7] = target: T2, Corticotropin-releasing factor receptor 2/Corticotropin-releasing factor-binding protein; assay: Dose Response confirmation of uHTS hits for small molecule antagonists of the CRF-binding protein and CRF-R2 receptor complex.; format: functional; conditions: read-out: IC50_Mean
[8] = CRF-BP/CRF-R2 complex antagonists, dose response, cell-based, uHTS hits, 384-well (AID 651639); format: functional, Homo sapiens; conditions: read-out: IC50_Mean
Vero = assay: cells; format: functional; conditions: Chlorocebus sabaeus
Cytochrome P450 2C9 = Cytochrome P450 2C9 (Homo sapiens, UniProt P11712)
Chain of Cytochrome P450 2C9 (P11712 whole entry): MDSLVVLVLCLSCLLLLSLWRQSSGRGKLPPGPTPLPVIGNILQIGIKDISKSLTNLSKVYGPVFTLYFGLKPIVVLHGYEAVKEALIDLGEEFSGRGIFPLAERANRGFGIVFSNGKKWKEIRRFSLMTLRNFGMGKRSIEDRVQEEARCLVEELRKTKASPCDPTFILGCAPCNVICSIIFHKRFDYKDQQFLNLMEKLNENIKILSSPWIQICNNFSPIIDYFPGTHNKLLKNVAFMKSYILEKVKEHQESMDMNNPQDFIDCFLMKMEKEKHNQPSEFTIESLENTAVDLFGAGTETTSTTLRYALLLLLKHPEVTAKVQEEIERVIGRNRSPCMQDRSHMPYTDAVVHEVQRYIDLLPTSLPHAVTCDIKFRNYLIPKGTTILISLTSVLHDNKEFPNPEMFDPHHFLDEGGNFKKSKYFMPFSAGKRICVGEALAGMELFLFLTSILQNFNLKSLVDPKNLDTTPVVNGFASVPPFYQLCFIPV

Cytochrome P450 1A2 = target: T5, Cytochrome P450 1A2 (Homo sapiens, UniProt P05177);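 note: PubChem cytochrome P450 panel assay, CYP1A2 panel member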
T5 sequence (P05177 whole entry): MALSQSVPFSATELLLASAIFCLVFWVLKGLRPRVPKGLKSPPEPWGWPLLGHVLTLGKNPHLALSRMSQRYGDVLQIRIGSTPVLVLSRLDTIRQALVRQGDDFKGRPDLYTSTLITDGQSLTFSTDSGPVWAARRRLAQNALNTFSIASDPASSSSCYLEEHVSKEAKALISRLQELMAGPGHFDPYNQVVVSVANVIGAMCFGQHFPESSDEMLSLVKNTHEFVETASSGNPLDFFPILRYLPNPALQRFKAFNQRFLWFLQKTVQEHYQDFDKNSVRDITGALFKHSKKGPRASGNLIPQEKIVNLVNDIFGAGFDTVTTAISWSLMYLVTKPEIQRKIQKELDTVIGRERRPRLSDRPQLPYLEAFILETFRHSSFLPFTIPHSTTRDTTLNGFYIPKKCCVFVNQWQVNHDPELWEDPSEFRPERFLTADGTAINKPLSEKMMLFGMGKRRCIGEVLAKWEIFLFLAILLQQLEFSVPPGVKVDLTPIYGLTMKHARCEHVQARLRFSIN

[9] = target: T6, Heat shock factor protein 1 (Mus musculus, UniProt P38532); assay: HSF1 potentiators in luciferase reporter cells, confirmation, cell-based, NIH3T3, luminescence, dose retest (AID 435004); format: functional;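 note: stress induced by proteasome inhibitor MG132 added 30 min after compound; luciferase reporter driven by HSF1 response element in NIH3T3 cells; actives raise luminescence as potentiators of the MG132 stress response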
T6 sequence (P38532 whole entry): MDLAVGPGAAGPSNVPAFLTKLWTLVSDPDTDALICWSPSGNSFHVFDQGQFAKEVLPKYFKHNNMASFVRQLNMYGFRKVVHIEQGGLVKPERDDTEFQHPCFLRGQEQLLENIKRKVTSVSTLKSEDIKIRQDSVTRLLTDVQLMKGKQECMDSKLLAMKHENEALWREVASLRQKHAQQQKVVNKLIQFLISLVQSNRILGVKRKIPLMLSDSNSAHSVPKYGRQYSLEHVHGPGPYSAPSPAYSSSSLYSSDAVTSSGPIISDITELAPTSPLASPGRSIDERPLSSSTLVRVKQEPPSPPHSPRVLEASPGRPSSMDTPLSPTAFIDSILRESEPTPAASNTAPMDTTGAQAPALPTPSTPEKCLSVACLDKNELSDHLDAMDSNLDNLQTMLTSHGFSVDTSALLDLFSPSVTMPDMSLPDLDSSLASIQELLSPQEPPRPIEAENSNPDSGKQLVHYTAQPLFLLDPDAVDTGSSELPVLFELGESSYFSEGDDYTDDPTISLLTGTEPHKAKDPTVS

Structure (SMILES): CC(C)N1CCc2c(sc(NC(=O)c3cc4cc([N+](=O)[O-])ccc4s3)c2C(N)=O)C1
- AC50 [1]: 10.3 µM (active)
- EC50 [2]: > 53 µM (inactive)

Structure (SMILES): O=C(Cn1nc(-c2ccco2)ccc1=O)Nc1cc(C(F)(F)F)ccc1Cl
- IC50 (Fatty acid synthase [3]): 13.1 µM (active)
- IC50 (Fatty acid synthase [4]): 11.8 µM (active)

Structure (SMILES): Nc1nonc1NC(=O)CSc1ncccc1C(=O)O
- IC50 (Estrogen receptor beta): > 50 µM (not active)

Structure (SMILES): COc1ccccc1NC(=O)c1sc2ncn(Cc3cccc(C)c3)c(=O)c2c1C
- IC50 (Prothrombin): > 50 µM (not active)

Structure (SMILES): COC(=O)c1sc(-c2ccc(C(C)(C)C)cc2)cc1NC(=O)CSCC(=O)O
- EC50 [5]: 8.94 µM (active)
- EC50 (Streptokinase A): 6.69 µM (active)
- CC50 [6]: 15.7 µM (active)
- EC50 [2]: 36.8 µM (active)
- EC50 (Streptococcus): 12.1 µM (active)
- IC50 [7]: 4.1 µM (active)
- IC50 [8]: 14.1 µM (active)

Structure (SMILES): COc1cccc(NC(=O)CN2C(=O)CSc3ccc(S(=O)(=O)N4CCC(C)CC4)cc32)c1
- IC50 (Fatty acid synthase [3]): 2.44 µM (active)
- IC50 (Fatty acid synthase [4]): 6.24 µM (active)

Structure (SMILES): Cc1nc(Sc2ccccc2)c(C#N)c(C)c1[N+](=O)[O-]
- IC50 (Fatty acid synthase [3]): 8.81 µM (active)
- IC50 (Fatty acid synthase [4]): 13.9 µM (active)

Structure (SMILES): CCCCc1nc2sc3c(SCCN(C)C)ncnc3c2c2c1CCC2
- AC50 [1]: 19.7 µM (active)
- CC50 (Vero): 20.6 µM (active)

Structure (SMILES): CC(C)c1ccc(S(=O)(=O)c2nnn3c2nc(NCC2CCCO2)c2ccccc23)cc1 (stereo not drawn)
- IC50 (Fatty acid synthase [3]): 1.34 µM (active)
- IC50 (Fatty acid synthase [4]): 1.72 µM (active)

Structure (SMILES): CCn1cc(C(=O)NCc2ccco2)c(=O)c2cc(S(=O)(=O)N3CCCC3)ccc21
- IC50 (Prothrombin): 1.31 µM (active)

Structure (SMILES): COC(=O)c1nnc(NC(=O)c2ccccc2)[nH]1
- AC50 (Cytochrome P450 2C9): 3.98 µM (inconclusive)
- AC50 (Cytochrome P450 1A2): 17.8 µM (inconclusive)
- IC50 (Prothrombin): 0.0545 µM (active)

Structure (SMILES): O=C(Nc1nccs1)c1ccc2nccnc2c1
- IC50 (Estrogen receptor beta): 14.9 µM (active)

Structure (SMILES): CC1CCN(S(=O)(=O)c2ccc3c(c2)c(=O)c(C(=O)NCc2ccco2)cn3C)CC1
- IC50 (Fatty acid synthase [3]): 2.4 µM (active)
- IC50 (Fatty acid synthase [4]): 3.81 µM (active)

Structure (SMILES): CCCC(=O)n1nc(-c2ccccc2)nc1SC
- IC50 (Prothrombin): 0.935 µM (active)

Structure (SMILES): O=[N+]([O-])c1ccc(Sc2ccccc2)nc1
- EC50 [9]: > 260 µM (inactive)
- EC50 [2]: > 53 µM (inactive)
- IC50 [7]: < 0.368 µM (active)
- IC50 [8]: 5.42 µM (active)
